Publication PMC9537276, “A pathway for chitin oxidation in marine bacteria” (Nature Communications, 2022)

Experiments:
[1] = biological target: T1, OngC (Pseudoalteromonas prydzensis, UniProt Z9U939ZVG8); experiment: ammonia release assay kit; Q-TOF-MS; assay type: biochemical; details: 10 mM substrate (made in situ by OngB from GlcNAc1A), 10 mM Bis-Tris-HCl pH 7.5, 25 °C
T1 construct: full length, C-terminal His tag, pET22b, E. coli BL21 (DE3)
T1 sequence (Z9U939ZVG8 1-415): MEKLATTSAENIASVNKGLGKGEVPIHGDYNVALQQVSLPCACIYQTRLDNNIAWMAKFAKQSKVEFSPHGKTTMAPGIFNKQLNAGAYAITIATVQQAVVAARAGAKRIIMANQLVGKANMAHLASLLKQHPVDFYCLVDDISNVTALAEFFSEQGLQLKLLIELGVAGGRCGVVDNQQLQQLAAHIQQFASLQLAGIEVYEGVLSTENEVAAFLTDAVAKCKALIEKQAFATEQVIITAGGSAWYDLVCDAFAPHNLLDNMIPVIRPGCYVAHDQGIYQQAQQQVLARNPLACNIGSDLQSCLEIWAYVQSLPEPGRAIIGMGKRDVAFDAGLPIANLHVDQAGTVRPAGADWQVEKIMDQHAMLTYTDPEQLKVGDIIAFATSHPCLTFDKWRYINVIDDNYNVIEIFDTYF

[2] = biological target: T2, OngB (Pseudoalteromonas prydzensis, UniProt A0A7V1CY72); experiment: acetate release assay kit; Q-TOF-MS; assay type: biochemical; details: 25 mM substrate, 10 mM Bis-Tris-HCl pH 7.5, 25 °C, 30 min
T2 construct: gene ENH88_07920; full length, C-terminal His tag, pET22b, E. coli BL21 (DE3)
T2 sequence (A0A7V1CY72 1-489): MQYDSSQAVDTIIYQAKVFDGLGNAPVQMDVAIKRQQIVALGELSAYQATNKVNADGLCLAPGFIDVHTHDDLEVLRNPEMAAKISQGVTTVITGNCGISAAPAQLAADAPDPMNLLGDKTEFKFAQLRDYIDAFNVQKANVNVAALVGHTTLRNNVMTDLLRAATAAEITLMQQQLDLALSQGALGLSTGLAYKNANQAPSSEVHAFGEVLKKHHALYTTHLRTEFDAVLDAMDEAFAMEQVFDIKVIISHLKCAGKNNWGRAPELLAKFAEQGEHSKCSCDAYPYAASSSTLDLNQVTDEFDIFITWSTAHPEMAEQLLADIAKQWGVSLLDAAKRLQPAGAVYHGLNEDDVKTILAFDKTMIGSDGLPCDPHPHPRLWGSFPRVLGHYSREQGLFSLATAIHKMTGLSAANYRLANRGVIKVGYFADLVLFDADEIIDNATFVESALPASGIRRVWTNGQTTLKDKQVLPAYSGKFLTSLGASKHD

SMILES | ammonia release assay kit; Q-TOF-MS [1] | acetate release assay kit; Q-TOF-MS [2]
N[C@@H](C(=O)O)[C@@H](O)[C@H](O)[C@H](O)CO [GlcN1A, 2-(amino)-2-deoxy-D-gluconic acid] | OngC can deaminate GlcN1A to produce ammonia and KDG | –
CC(=O)N[C@@H](C(=O)O)[C@@H](O)[C@H](O)[C@H](O)CO [GlcNAc1A, 2-(acetylamino)−2-deoxy-D-gluconic acid] | – | Only OngB was shown to act on GlcNAc1A to produce acetate
